Source: ChEMBL document CHEMBL1201862, “PubChem BioAssay data set” (2004)
Structures can show the parent of a compound that is named as a salt.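 How tested: cells in 96-well plates exposed to compound for 48 hours at five concentrations. At the GI50, growth is halved.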 Calls of active or inactive are those of the source. Cut-off read from the data, not from the text of the source: active = GI50 up to about 1.1 µM and inactive = higher.

What was measured:
Experiment in all cases: NCI anticancer screen, dose series, 48 h
[1] = test system: 786-0
[2] = test system: A549
[3] = test system: ACHN
[4] = test system: DU-145
[5] = test system: HL-60
[6] = test system: HOP-62
[7] = test system: HT-29
[8] = test system: M14
[9] = test system: MOLT-4
[10] = test system: Malme-3M
[11] = test system: NCI-H226
[12] = test system: RXF 393
[13] = test system: SF-268
[14] = test system: SK-MEL-2
[15] = test system: SK-OV-3
[16] = test system: U-251
[17] = test system: UACC-257
[18] = test system: SR
[19] = test system: HCC 2998

Measured: GI50

C1=C2C3=[N+](CCCCC3)CC2Cc2ccsc21 (stereo not given)
inactive: [1] > 100 µM | [2] 21.5 µM | [3] > 100 µM | [4] > 100 µM | [5] 66.1 µM | [6] > 100 µM | [7] 32.8 µM | [8] > 100 µM | [9] > 100 µM | [10] 39.9 µM | [11] > 100 µM | [12] > 100 µM | [13] 76.2 µM | [14] > 100 µM | [15] > 100 µM | [16] 17.2 µM | [17] 23.3 µM

CNCCC=C1c2ccccc2CCc2ccccc21 [NORTRIPTYLINE HYDROCHLORIDE]
inactive: [1] 14.6 µM | [2] 16.6 µM | [3] 16.6 µM | [4] 14.5 µM | [5] 16.1 µM | [6] 14.7 µM | [7] 4.69 µM | [8] 4.25 µM | [9] 12.1 µM | [10] 15.8 µM | [11] 22.1 µM | [12] 9.35 µM | [13] 15.5 µM | [14] 15.4 µM | [15] 12.6 µM | [18] 12.1 µM | [16] 14.3 µM | [17] 7.67 µM

CCCc1c(-c2ccccc2)[nH]c2ccccc2c1=O
inactive: [3] 34.8 µM | [4] > 100 µM | [19] 25.2 µM | [5] > 100 µM | [6] 34.1 µM | [7] 22.6 µM | [8] 36.2 µM | [9] > 100 µM | [10] 33 µM | [11] > 100 µM | [12] > 100 µM | [13] 72.4 µM | [14] 27.2 µM | [15] 42.3 µM | [18] > 100 µM | [16] 51.3 µM | [17] > 100 µM

C[C@]12CC[C@H]3[C@@H](CC=C4C[C@@H](O)CC[C@@]43C)[C@@H]1C/C(=C\c1ccc([N+](=O)[O-])cc1)[C@@H]2O
inactive: [1] 10.9 µM | [2] 10.4 µM | [3] 11.6 µM | [4] 11 µM | [19] 11.7 µM | [5] 2.65 µM | [6] 11.7 µM | [7] 5.83 µM | [8] 22.7 µM | [9] 4.18 µM | [10] 16 µM | [11] 16.8 µM | [12] 9.71 µM | [13] 26.1 µM | [14] 19.8 µM | [15] 13.7 µM | [18] 8.41 µM | [17] 16.3 µM

CC(C)(CCCCC(C)(C)C1NC(=O)N1)C1NC(=O)N1
inactive: [2] > 10 µM | [3] > 10 µM | [4] > 10 µM | [19] > 10 µM | [5] > 10 µM | [6] > 10 µM | [7] > 10 µM | [8] > 10 µM | [9] > 10 µM | [10] > 10 µM | [11] > 10 µM | [12] > 10 µM | [13] > 10 µM | [14] > 10 µM | [15] > 10 µM | [16] > 10 µM

COc1cc2c(cc1OC)C1Cc3cc(OC)c(OC)cc3C(C2)O1
inactive: [2] > 100 µM | [3] > 100 µM | [4] > 100 µM | [19] > 100 µM | [6] > 100 µM | [7] > 100 µM | [8] > 100 µM | [9] 49.1 µM | [11] > 100 µM | [12] > 100 µM | [13] > 100 µM | [14] > 100 µM | [15] > 100 µM | [16] > 100 µM | [17] > 100 µM

Cc1cc(C)c(NC(=O)/C=C/c2ccccc2)c(C)c1
inactive: [2] > 100 µM | [3] 80.2 µM | [19] > 100 µM | [5] 36.1 µM | [6] 38.9 µM | [7] > 100 µM | [8] > 100 µM | [9] 7.64 µM | [11] > 100 µM | [12] > 100 µM | [13] > 100 µM | [14] > 100 µM | [15] > 100 µM | [18] 7.28 µM | [16] > 100 µM | [17] > 100 µM

COC(=O)CSc1nc2[nH]c(SC)c(C(N)=O)c2c(=O)n1-c1ccccc1
inactive: [1] > 10 µM | [2] > 10 µM | [4] > 10 µM | [19] > 10 µM | [5] > 10 µM | [6] > 10 µM | [7] > 10 µM | [8] > 10 µM | [9] > 10 µM | [10] > 10 µM | [12] > 10 µM | [13] > 10 µM | [15] > 10 µM | [18] > 10 µM | [17] > 10 µM

CC[C@@H]1CN2CCC1C[C@@H]2C(O)c1ccnc2ccc(OCCN3CCN(CCOc4ccc5nccc(C(O)[C@@H]6C[C@@H]7CCN6C[C@@H]7CC)c5c4)CC3)cc12 (stereo not given in full)
inactive: [1] 13.4 µM | [2] 15.3 µM | [3] 15.1 µM | [4] 17.5 µM | [19] 9.48 µM | [5] 21.9 µM | [6] 18.5 µM | [7] 15.7 µM | [8] 12.8 µM | [9] 6.53 µM | [10] 24.8 µM | [12] 16.5 µM | [13] 18.4 µM | [14] 19.9 µM | [15] 18.3 µM | [16] 16.7 µM | [17] 16.1 µM

O=C(O)CCCCn1ccc(=O)[nH]c1=O
inactive: [1] > 100 µM | [2] > 100 µM | [3] > 100 µM | [4] > 100 µM | [19] > 100 µM | [5] > 100 µM | [6] > 100 µM | [7] > 100 µM | [8] > 100 µM | [9] > 100 µM | [10] > 100 µM | [11] > 100 µM | [12] > 100 µM | [13] > 100 µM | [14] > 100 µM | [15] > 100 µM | [18] > 100 µM | [16] > 100 µM | [17] > 100 µM

O=C(N[C@H]1c2ccsc2/C(=N/O)[C@H]1O)C(F)(F)F
inactive: [2] > 100 µM | [4] > 100 µM | [19] > 100 µM | [5] > 100 µM | [6] > 100 µM | [7] > 100 µM | [8] > 100 µM | [9] > 100 µM | [10] > 100 µM | [11] > 100 µM | [12] > 100 µM | [13] > 100 µM | [14] > 100 µM | [15] > 100 µM | [18] > 100 µM | [16] > 100 µM | [17] > 100 µM

COc1cc2c(cc1OC)[C@@H]1[C@H](C#N)C(=O)C(C)(C)N1CC2
inactive: [1] > 100 µM | [2] > 100 µM | [3] > 100 µM | [4] > 100 µM | [19] > 100 µM | [5] 23.6 µM | [7] > 100 µM | [8] > 100 µM | [9] > 100 µM | [10] > 100 µM | [11] > 100 µM | [15] > 100 µM | [18] > 100 µM | [16] > 100 µM | [17] > 100 µM
